Reference: patent US9938273B2 (Plexxikon Inc., priority 2015, dated 2018)

Columns and labels:
FLT3-ITD = biological target: T1, FLT3-ITD (Homo sapiens, UniProt P36888); test: AlphaScreen kinase assay with recombinant enzyme, FLT3-ITD; format: biochemical; details: 8pt; read-out: FLT3_ITD 8pt: IC50
T1 sequence (P36888 1-993): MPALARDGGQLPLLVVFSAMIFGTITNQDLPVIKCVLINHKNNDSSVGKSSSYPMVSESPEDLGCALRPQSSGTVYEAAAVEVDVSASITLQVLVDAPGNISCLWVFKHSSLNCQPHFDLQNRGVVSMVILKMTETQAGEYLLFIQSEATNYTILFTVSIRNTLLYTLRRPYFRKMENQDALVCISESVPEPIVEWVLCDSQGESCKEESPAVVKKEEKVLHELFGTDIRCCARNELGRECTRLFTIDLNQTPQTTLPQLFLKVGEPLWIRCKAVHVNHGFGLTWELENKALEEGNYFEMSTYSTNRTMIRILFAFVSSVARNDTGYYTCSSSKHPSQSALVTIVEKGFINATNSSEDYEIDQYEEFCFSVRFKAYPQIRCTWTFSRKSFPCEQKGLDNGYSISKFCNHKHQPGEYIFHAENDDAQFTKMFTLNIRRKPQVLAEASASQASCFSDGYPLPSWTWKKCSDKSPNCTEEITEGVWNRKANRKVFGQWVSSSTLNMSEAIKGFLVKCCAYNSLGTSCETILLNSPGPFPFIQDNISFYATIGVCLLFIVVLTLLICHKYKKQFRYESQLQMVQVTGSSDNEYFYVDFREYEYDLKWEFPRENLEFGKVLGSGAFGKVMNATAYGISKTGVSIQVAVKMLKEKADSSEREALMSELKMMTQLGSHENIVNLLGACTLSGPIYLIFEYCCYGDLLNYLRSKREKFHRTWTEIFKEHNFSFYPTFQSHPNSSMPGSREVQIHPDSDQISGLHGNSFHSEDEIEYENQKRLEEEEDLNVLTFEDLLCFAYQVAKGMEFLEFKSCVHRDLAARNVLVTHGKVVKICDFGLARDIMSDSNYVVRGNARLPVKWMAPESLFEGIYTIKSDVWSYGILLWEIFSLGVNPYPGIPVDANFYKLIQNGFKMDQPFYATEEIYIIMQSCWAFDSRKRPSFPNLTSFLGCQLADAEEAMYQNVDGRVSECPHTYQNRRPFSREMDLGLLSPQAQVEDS
Summary of the method: (§1)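 Recombinant kinase phosphorylates biotinylated poly(Glu4-Tyr) peptide (30 nM final); streptavidin donor and anti-phosphotyrosine PY20 acceptor beads (10 μg/mL final) give a 580 nm proximity signal on 680 nm excitation. IC50 determinations used a final concentration of 10 μM for FLT3-D835Y/FLT3-ITD and 100 μM for c-KIT.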

c-KIT = biological target: T2, c-KIT (Homo sapiens, UniProt P10721); test: AlphaScreen kinase assay with recombinant enzyme, c-KIT; format: biochemical; details: 100ATP, 8pt, GMean
T2 construct: purchased Millipore 14-559K
T2 sequence (P10721 26-976): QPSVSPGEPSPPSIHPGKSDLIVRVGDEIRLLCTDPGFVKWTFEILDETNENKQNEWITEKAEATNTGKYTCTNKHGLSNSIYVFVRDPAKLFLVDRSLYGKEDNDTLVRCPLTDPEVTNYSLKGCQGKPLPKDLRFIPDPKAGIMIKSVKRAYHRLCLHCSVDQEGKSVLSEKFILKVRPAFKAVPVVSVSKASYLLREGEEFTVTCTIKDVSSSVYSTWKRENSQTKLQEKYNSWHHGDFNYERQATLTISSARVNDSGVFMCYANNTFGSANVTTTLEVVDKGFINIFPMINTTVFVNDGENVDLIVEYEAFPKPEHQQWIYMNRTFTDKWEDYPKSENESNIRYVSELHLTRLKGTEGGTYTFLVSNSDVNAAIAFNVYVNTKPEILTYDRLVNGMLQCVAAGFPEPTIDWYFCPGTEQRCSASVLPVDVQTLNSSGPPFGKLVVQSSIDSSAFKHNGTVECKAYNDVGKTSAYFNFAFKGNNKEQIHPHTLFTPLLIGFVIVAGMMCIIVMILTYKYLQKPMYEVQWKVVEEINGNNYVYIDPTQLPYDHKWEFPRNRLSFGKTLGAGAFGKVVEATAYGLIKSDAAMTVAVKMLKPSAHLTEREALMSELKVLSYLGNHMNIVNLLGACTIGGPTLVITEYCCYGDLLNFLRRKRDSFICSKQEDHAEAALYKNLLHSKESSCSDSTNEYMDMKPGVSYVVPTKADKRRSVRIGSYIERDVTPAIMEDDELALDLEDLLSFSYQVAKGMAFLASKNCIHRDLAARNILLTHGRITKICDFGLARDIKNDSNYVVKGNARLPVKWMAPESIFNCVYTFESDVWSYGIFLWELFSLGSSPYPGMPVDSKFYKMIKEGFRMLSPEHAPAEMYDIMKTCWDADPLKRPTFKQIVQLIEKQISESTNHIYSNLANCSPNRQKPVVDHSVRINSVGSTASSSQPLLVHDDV
Summary of the method: as §1

SMILES | IC50 (FLT3-ITD) | IC50 (c-KIT)
c1ccc(-c2cc3cc(-c4ccc5[nH]nc(NC6CCNC6)c5c4)cnc3[nH]2)cc1 (centres unmarked) [Compound P-0059, 5-(2-phenyl-1H-pyrrolo[2,3-b]pyridin-5-yl)-N-pyrrolidin-3-yl-1H-indazol-3-amine] | 0.0001 to 10 µM | 0.0001 to 10 µM
CNC1CCN(C(=O)c2n[nH]c3ccc(-c4cnc5[nH]c(-c6ccccc6)cc5c4)cc23)CC1 [Compound P-0044, [4-(methylamino)-1-piperidyl]-[5-(2-phenyl-1H-pyrrolo[2,3-b]pyridin-5-yl)-1H-indazol-3-yl]methanone] | 0.0001 to 10 µM | 0.0001 to 10 µM
N[C@@H]1CN(C(=O)c2cccc(-c3cnc4[nH]c(-c5ccccc5)cc4c3)n2)CC12CC2 [Compound P-0083, [(7S)-7-amino-5-azaspiro[2.4]heptan-5-yl]-[6-(2-phenyl-1H-pyrrolo[2,3-b]pyridin-5-yl)-2-pyridyl]methanone] | 0.0001 to 10 µM | –
CC(=O)NC1CCN(C(=O)c2cccc(-c3cnc4[nH]c(-c5ccc(F)cc5)cc4c3)c2)CC1 [Compound P-0001, N-[1-[3-[2-(4-fluorophenyl)-1H-pyrrolo[2,3-b]pyridin-5-yl]benzoyl]-4-piperidyl]acetamide] | 10 to 50 µM | 0.0001 to 10 µM
O=C(NC1CCNCC1)c1n[nH]c2ccc(-c3cnc4[nH]c(-c5ccccc5)cc4c3)cc12 [Compound P-0039, 5-(2-phenyl-1H-pyrrolo[2,3-b]pyridin-5-yl)-N-(4-piperidyl)-1H-indazole-3-carboxamide] | 0.0001 to 10 µM | 0.0001 to 10 µM
NC1CCCN(C(=O)c2cccc(-c3cnc4[nH]c(-c5ccccc5)cc4c3)n2)C1 (centres unmarked) [Compound P-0067, (3-amino-1-piperidyl)-[6-(2-phenyl-1H-pyrrolo[2,3-b]pyridin-5-yl)-2-pyridyl]methanone] | 0.0001 to 10 µM | 0.0001 to 10 µM
CC1(N)CCCN(C(=O)c2cccc(-c3cnc4[nH]c(-c5ccccc5)cc4c3)n2)C1 (centres unmarked) [Compound P-0082, (3-amino-3-methyl-1-piperidyl)-[6-(2-phenyl-1H-pyrrolo[2,3-b]pyridin-5-yl)-2-pyridyl]methanone] | 0.0001 to 10 µM | –
c1ccc(-c2cc3cc(-c4ccc5[nH]nc(NC6CNC6)c5c4)cnc3[nH]2)cc1 [Compound P-0053, N-(azetidin-3-yl)-5-(2-phenyl-1H-pyrrolo[2,3-b]pyridin-5-yl)-1H-indazol-3-amine] | 0.0001 to 10 µM | 0.0001 to 10 µM
CNC1CCN(C(=O)c2cccc(-c3cnc4[nH]c(-c5ccccc5)cc4c3)n2)CC1 [Compound P-0041, [4-(methylamino)-1-piperidyl]-[6-(2-phenyl-1H-pyrrolo[2,3-b]pyridin-5-yl)-2-pyridyl]methanone] | 0.0001 to 10 µM | 0.0001 to 10 µM
NC1CCN(C(=O)c2c[nH]c3ccc(-c4cnc5[nH]c(-c6ccccc6)cc5c4)cc23)CC1 [Compound P-0042, (4-amino-1-piperidyl)-[5-(2-phenyl-1H-pyrrolo[2,3-b]pyridin-5-yl)-1H-indol-3-yl]methanone] | 0.0001 to 10 µM | 0.0001 to 10 µM
O=C(c1cccc(-c2cnc3[nH]c(-c4ccccc4)cc3c2)n1)N1CCC(O)C1 (centres unmarked) [Compound P-0068, (3-hydroxypyrrolidin-1-yl)-[6-(2-phenyl-1H-pyrrolo[2,3-b]pyridin-5-yl)-2-pyridyl]methanone] | 0.0001 to 10 µM | 0.0001 to 10 µM
NC1CCC(C(=O)N2Cc3c(cccc3-c3cnc4[nH]c(-c5ccccc5)cc4c3)C2=O)C1 (centres unmarked) [Compound P-0047, 2-(3-aminocyclopentanecarbonyl)-4-(2-phenyl-1H-pyrrolo[2,3-b]pyridin-5-yl)isoindolin-1-one] | 0.0001 to 10 µM | 0.0001 to 10 µM
CC1(N)CCN(C(=O)c2cccc(-c3cnc4[nH]c(-c5ccccc5)cc4c3)n2)CC1 [Compound P-0081, (4-amino-4-methyl-1-piperidyl)-[6-(2-phenyl-1H-pyrrolo[2,3-b]pyridin-5-yl)-2-pyridyl]methanone] | 0.0001 to 10 µM | –
CS(=O)(=O)NC1CCN(C(=O)c2cccc(-c3cnc4[nH]c(-c5ccccc5)cc4c3)n2)CC1 [Compound P-0032, N-[1-[6-(2-phenyl-1H-pyrrolo[2,3-b]pyridin-5-yl)pyridine-2-carbonyl]-4-piperidyl]methanesulfonamide] | 0.0001 to 10 µM | 10 to 50 µM
c1ccc(-c2cc3cc(-c4ccc5[nH]nc(NC6CCNCC6)c5c4)cnc3[nH]2)cc1 [Compound P-0056, 5-(2-phenyl-1H-pyrrolo[2,3-b]pyridin-5-yl)-N-(4-piperidyl)-1H-indazol-3-amine] | 0.0001 to 10 µM | 0.0001 to 10 µM
O=C(c1cccc(-c2cnc3[nH]c(-c4ccccc4)cc3c2)n1)C1CCNCC1 [Compound P-0043, [6-(2-phenyl-1H-pyrrolo[2,3-b]pyridin-5-yl)-2-pyridyl]-(4-piperidyl)methanone] | 0.0001 to 10 µM | 0.0001 to 10 µM
NC1CN(C(=O)c2n[nH]c3ccc(-c4cnc5[nH]c(-c6ccccc6)cc5c4)cc23)C1 [Compound P-0029, (3-aminoazetidin-1-yl)-[5-(2-phenyl-1H-pyrrolo[2,3-b]pyridin-5-yl)-1H-indazol-3-yl]methanone] | 0.0001 to 10 µM | 0.0001 to 10 µM

Now from value to molecule:

IC50 (FLT3-ITD) | IC50 (c-KIT) | SMILES
0.0001 to 10 µM | 0.0001 to 10 µM | Cc1ccc(-c2cnc3[nH]c(-c4ccccc4)cc3c2)nc1C(=O)N1CCC(N)CC1 [Compound P-0033, (4-amino-1-piperidyl)-[3-methyl-6-(2-phenyl-1H-pyrrolo[2,3-b]pyridin-5-yl)-2-pyridyl]methanone]
0.0001 to 10 µM | 0.0001 to 10 µM | N[C@H]1CCN(C(=O)c2cccc(-c3cnc4[nH]c(-c5ccccc5)cc4c3)c2)C1 [Compound P-0036, [(3S)-3-aminopyrrolidin-1-yl]-[3-(2-phenyl-1H-pyrrolo[2,3-b]pyridin-5-yl)phenyl]methanone]
0.0001 to 10 µM | 0.0001 to 10 µM | NC1CCN(c2cccc3ccc(-c4cnc5[nH]c(-c6ccccc6)cc5c4)nc23)CC1 [Compound P-0034, 1-[2-(2-phenyl-1H-pyrrolo[2,3-b]pyridin-5-yl)-8-quinolyl]piperidin-4-amine]
0.0001 to 10 µM | 10 to 50 µM | NC1CCN(C(=O)c2n[nH]c3ccc(-c4cnc5[nH]c(C6=CCN(C(=O)C7CC7)C6)cc5c4)cc23)CC1 [Compound P-0074, (4-amino-1-piperidyl)-[5-[2-[1-(cyclopropanecarbonyl)-2,5-dihydropyrrol-3-yl]-1H-pyrrolo[2,3-b]pyridin-5-yl]-1H-indazol-3-yl]methanone]
0.0001 to 10 µM | 0.0001 to 10 µM | Cc1ccc(-c2cnc3[nH]c(-c4ccccc4)cc3c2)cc1C(=O)N1CCC(N)CC1 [Compound P-0035, (4-amino-1-piperidyl)-[2-methyl-5-(2-phenyl-1H-pyrrolo[2,3-b]pyridin-5-yl)phenyl]methanone]
0.0001 to 10 µM | 0.0001 to 10 µM | CNC(=O)C1CCN(C(=O)c2cccc(-c3cnc4[nH]c(-c5ccccc5)cc4c3)n2)CC1 [Compound P-0030, N-methyl-1-[6-(2-phenyl-1H-pyrrolo[2,3-b]pyridin-5-yl)pyridine-2-carbonyl]piperidine-4-carboxamide]
0.0001 to 10 µM | – | N[C@H]1CCN(C(=O)c2csc(-c3cnc4[nH]c(-c5ccccc5)cc4c3)n2)C1 [Compound P-0048, [(3S)-3-aminopyrrolidin-1-yl]-[2-(2-phenyl-1H-pyrrolo[2,3-b]pyridin-5-yl)thiazol-4-yl]methanone]
0.0001 to 10 µM | – | CN(C(=O)c1cccc(-c2cnc3[nH]c(-c4ccccc4)cc3c2)n1)C1CCNC1 (centres unmarked) [Compound P-0076, N-methyl-6-(2-phenyl-1H-pyrrolo[2,3-b]pyridin-5-yl)-N-pyrrolidin-3-yl-pyridine-2-carboxamide]
0.0001 to 10 µM | – | CNC1CCCN(C(=O)c2cccc(-c3cnc4[nH]c(-c5ccccc5)cc4c3)n2)C1 (centres unmarked) [Compound P-0080, [3-(methylamino)-1-piperidyl]-[6-(2-phenyl-1H-pyrrolo[2,3-b]pyridin-5-yl)-2-pyridyl]methanone]
0.0001 to 10 µM | 0.0001 to 10 µM | CON(C)C(=O)c1cccc(-c2cnc3[nH]c(-c4ccccc4)cc3c2)c1 [Compound P-0002, N-methoxy-N-methyl-3-(2-phenyl-1H-pyrrolo[2,3-b]pyridin-5-yl)benzamide]
0.0001 to 10 µM | 10 to 50 µM | O=C(c1cccc(-c2cnc3[nH]c(-c4ccccc4)cc3c2)n1)N1CCCC(O)C1 (centres unmarked) [Compound P-0069, (3-hydroxy-1-piperidyl)-[6-(2-phenyl-1H-pyrrolo[2,3-b]pyridin-5-yl)-2-pyridyl]methanone]
